In brackets after ≈: the same amount, converted by molar mass.
Columns and labels:
Cytochrome P450 3A4 = Cytochrome P450 3A4 (Homo sapiens, UniProt P08684); experiment: Inhibition of CYP3A4 in human liver microsomes using midazolam as substrate incubated for 10 mins in presence of NADPH by LC-MS/MS analysis; type: ADME, Microsome
[1] = High throughput solubility of the compound in FeSSIF after 16 to 24 hrs by MS/MS analysis; type: physicochemical; conditions: time 16-24 hrs
KARPAS-422 = experiment: Antiproliferative activity against human KARPAS-422 cells expressing EZH2 mutant assessed as inhibition of cell growth after 14 days by beckman coulter counting method; type: functional; conditions: time 14 day
[2] = Plasma clearance in rat assessed as hepatic extraction; type: ADME, cell-free; conditions: read-out: ERH
Cytochrome P450 2C9 [3] = target: T1, Cytochrome P450 2C9 (Homo sapiens, UniProt P11712); experiment: Inhibition of CYP2C9 in human liver microsomes using diclofenac as substrate incubated for 10 mins in presence of NADPH by LC-MS/MS analysis; type: ADME, Microsome
T1 sequence (P11712 whole entry): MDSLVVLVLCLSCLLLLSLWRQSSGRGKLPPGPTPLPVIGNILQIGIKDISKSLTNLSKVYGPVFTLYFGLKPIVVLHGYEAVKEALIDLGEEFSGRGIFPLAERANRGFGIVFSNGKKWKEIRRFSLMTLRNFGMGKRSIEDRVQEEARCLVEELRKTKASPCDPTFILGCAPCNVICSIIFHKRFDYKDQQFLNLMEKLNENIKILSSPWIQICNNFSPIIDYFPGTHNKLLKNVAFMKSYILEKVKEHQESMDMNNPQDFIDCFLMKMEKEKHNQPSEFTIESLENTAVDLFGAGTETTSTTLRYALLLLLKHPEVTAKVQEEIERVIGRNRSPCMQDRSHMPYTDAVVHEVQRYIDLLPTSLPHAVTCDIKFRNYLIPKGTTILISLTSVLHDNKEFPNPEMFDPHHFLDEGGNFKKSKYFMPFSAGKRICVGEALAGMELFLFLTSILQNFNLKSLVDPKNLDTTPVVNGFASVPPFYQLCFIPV

[4] = Permeability across basolateral to apical side in human Caco-2 cells incubated for 2 hrs by LC/MS/MS analysis; type: ADME, cell-based; conditions: read-out: permeability
[5] = Drugmetabolism in rat hepatocytes assessed as CYP3A4 mediated metabolite formation; type: ADME, cell-based, Hepatocyte
[6] = Oral bioavailability in Sprague-Dawley rat at 2 mg/kg; type: ADME, organism-based; conditions: in vivo
[7] = Intrinsic clearance in rat hepatocytes measured per 10^6 cells; type: ADME, cell-based, Hepatocyte; conditions: read-out: CLH
[8] = Intrinsic clearance in human hepatocytes measured per 10^6 cells; type: ADME, cell-based, Hepatocyte; conditions: read-out: CLH
[9] = Dissociation constant, pKa of compound; type: physicochemical
[10] = Dose normalized AUC in wild type Beagle dog at 2 mg/kg, po or 1 mg/kg, iv after 1 week by LC-MS/MS analysis; type: ADME, organism-based, Canis lupus familiaris; conditions: in vivo, 168 h, time 1 weeks
[11] = Ratio of drug level in human blood to plasma; type: ADME, cell-free; conditions: whole blood
NIH3T3 = experiment: Phototoxicity in mouse 3T3 cells by neutral red uptake assay; type: toxicity, cell-based
Cytochrome P450 2C9 [12] = target: T1, Cytochrome P450 2C9; experiment: Inhibition of CYP2C9 human liver microsomes using diclofenac as substrate incubated for 15 mins by LC-MS/MS analysis; type: ADME, Microsome
[13] = Dose normalized Cmax in Sprague-Dawley rat at 2 mg/kg, po or 1 mg/kg, iv after 1 week by LC-MS/MS analysis; type: ADME, organism-based; conditions: in vivo, 168 h, time 1 weeks
[14] = target: T2, Alpha-2A adrenergic receptor (Homo sapiens, UniProt P08913); experiment: Agonist activity at adrenergic receptor alpha2a (unknown origin); type: functional
T2 sequence (P08913 whole entry): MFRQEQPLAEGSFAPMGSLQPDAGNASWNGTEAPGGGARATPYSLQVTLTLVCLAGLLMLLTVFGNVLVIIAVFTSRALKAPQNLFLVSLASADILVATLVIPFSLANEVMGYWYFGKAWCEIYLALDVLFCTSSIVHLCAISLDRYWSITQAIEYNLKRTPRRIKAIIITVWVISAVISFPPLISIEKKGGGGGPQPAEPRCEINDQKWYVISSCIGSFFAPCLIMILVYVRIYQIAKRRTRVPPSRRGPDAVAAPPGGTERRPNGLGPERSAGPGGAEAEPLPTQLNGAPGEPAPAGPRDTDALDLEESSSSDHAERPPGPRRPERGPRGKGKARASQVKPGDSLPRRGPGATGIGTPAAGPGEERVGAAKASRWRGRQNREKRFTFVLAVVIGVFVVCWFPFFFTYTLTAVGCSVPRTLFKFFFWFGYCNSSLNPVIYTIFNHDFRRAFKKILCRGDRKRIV

[15] = Dose normalized Cmax in wild type Beagle dog at 2 mg/kg, po or 1 mg/kg, iv after 1 week by LC-MS/MS analysis; type: ADME, organism-based, Canis lupus familiaris; conditions: in vivo, 168 h, time 1 weeks
[16] = Genotoxicity in Salmonella typhimurium TA98 in presence of S9 fraction by Ames test; type: toxicity, subcellular; conditions: salmonella enterica subsp. enterica serovar typhimurium
[17] = Plasma protein binding in human at 1 uM measured after 6 hrs LC-MS/MS analysis; type: ADME, cell-free; conditions: read-out: PPB (converted)
[18] = Antitumor activity against human Karpas-422 cells xenografted Athymic BALB/c nude mouse assessed as inhibition of tumor growth at 100 mg/kg, po for 26 days; type: functional; set-up: scale not given: the % may be the effect or the level left; conditions: time 26 day
[19] = Drug metabolism in bile duct cannulated Wistar Han rat assessed as parent compound recovery in urine at 3 mg/kg, iv after 8 hrs by LC-MS/MS analysis; type: ADME, organism-based; conditions: read-out: Drug metabolism
[20] = Lipophilicity, logD of the compound at pH 7.4 by LC with tandem MS analysis; type: physicochemical; conditions: buffer
[21] = Volume of distribution at steady state ICR (CD-1) mouse at 2 mg/kg, po or 1 mg/kg, iv after 1 week by LC-MS/MS analysis; type: ADME, organism-based; conditions: in vivo, 168 h, time 1 weeks
[22] = Ratio of drug level in mouse blood to plasma; type: ADME, cell-free
[23] = Unbound plasma concentration in Athymic BALB/c nude mouse xenografted with human Karpas-422 cells at 10 to 300 mg/kg, po after 12 hrs by HPLC-MS/MS analysis; type: ADME, organism-based; conditions: in vivo, dose 10-300 mg/kg
[24] = In vivo inhibition of PRC2 in PBMC collected from human Karpas-422 cells xenografted Athymic NTac:NIH-Whn nude rat assessed as reduction in H3K27me3 level at 10 mg/kg, po, qd for 42 days measured after 4 hrs of last dose by FACS method; type: functional; set-up: scale not given: the % may be the effect or the level left; conditions: time 42 day
[25] = In vivo inhibition of PRC2 in PBMC collected from human Karpas-422 cells xenografted Athymic NTac:NIH-Whn nude rat assessed as reduction in H3K27me3 level at 3 mg/kg, po, qd for 57 days measured after 4 hrs of last dose by FACS method; type: functional; set-up: scale not given: the % may be the effect or the level left; conditions: time 57 day
[26] = Plasma protein binding in dog at 1 uM measured after 6 hrs LC-MS/MS analysis; type: ADME, cell-free, Canis lupus familiaris; conditions: read-out: PPB (converted)
[27] = Antitumor activity against human Karpas-422 cells xenografted Athymic BALB/c nude mouse assessed as inhibition of tumor growth at 30 mg/kg, po bid, for 33 days; type: functional; set-up: scale not given: the % may be the effect or the level left; conditions: time 33 day
[28] = Intrinsic clearance in dog hepatocytes measured per 10^6 cells; type: ADME, cell-based, Canis lupus familiaris, Hepatocyte; conditions: read-out: CLH
[29] = Metabolic stability in human microsomes assessed as intrinsic clearance; type: ADME, Microsome; conditions: read-out: CLH
[30] = Toxicity in rat assessed as effect on adrenal gland; conditions: in vivo
[31] = Antitumor activity against human Karpas-422 cells xenografted Athymic BALB/c nude mouse assessed as inhibition of tumor growth at 3 to 100 mg/kg, po bid, for 30 days treatment started at twenty fifth day after cancer cell implantation and followed by stop dosing measured upto 70 days; type: functional; set-up: scale not given: the % may be the effect or the level left; conditions: dose 3-100 mg/kg, time 30 day
[32] = Mutagenecity in Salmonella typhimurium TA98 by Ames test; type: toxicity; conditions: salmonella enterica subsp. enterica serovar typhimurium
Cytochrome P450 2D6 = Cytochrome P450 2D6 (Homo sapiens, UniProt P10635); experiment: Inhibition of CYP2D6 in human liver microsomes using bufuralol as substrate incubated for 10 mins in presence of NADPH by LC-MS/MS analysis; type: ADME, Microsome
Chain of Cytochrome P450 2D6 (P10635 whole entry): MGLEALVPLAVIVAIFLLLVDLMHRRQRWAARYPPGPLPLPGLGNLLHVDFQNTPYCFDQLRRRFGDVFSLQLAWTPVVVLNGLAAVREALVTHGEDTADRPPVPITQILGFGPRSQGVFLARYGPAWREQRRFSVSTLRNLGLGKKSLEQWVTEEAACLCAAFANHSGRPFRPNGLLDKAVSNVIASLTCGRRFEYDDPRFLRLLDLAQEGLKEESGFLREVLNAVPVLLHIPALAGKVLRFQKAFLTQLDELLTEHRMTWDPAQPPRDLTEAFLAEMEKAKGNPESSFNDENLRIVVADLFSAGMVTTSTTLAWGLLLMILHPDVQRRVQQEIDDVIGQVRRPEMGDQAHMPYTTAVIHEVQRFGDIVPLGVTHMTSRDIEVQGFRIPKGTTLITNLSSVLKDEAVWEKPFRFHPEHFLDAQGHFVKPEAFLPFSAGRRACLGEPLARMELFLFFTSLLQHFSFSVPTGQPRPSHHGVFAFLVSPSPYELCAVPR

[33] = Drugmetabolism in human hepatocytes assessed as metabolite formation; type: ADME, cell-based, Hepatocyte
[34] = Ratio of drug level in dog blood to plasma; type: ADME, cell-free, Canis lupus familiaris; conditions: whole blood
[35] = High throughput solubility of the compound at pH 4 after 16 to 24 hrs by MS/MS analysis; type: physicochemical; conditions: buffer, time 16-24 hrs

Chain of Cytochrome P450 3A4 (P08684 whole entry): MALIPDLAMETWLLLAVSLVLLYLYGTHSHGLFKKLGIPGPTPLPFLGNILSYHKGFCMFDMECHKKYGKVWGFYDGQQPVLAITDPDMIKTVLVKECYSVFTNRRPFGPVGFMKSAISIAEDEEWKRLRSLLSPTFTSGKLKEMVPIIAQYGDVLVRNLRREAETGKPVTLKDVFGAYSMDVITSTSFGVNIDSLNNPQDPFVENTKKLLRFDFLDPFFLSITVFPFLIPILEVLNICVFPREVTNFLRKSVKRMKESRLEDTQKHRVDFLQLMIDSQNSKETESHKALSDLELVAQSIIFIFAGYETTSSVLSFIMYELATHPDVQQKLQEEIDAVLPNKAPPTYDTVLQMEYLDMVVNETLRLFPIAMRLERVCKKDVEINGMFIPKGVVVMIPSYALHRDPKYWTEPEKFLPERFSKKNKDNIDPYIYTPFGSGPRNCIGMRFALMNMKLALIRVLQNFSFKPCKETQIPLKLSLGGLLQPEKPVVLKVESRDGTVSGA

**Q.** Which IC50 (Cytochrome P450 3A4) does the source give for Cc1ncccc1-c1cnc(NCc2c(F)ccc3c2CCO3)n2cnnc12 here?
**A.** > 20 µM

**Q.** And the solubility [1]?
**A.** 57 µM (≈ 21.5 µg/mL)

**Q.** And the GI50 (KARPAS-422; Homo sapiens, KARPAS-422, 336 h)?
**A.** 4 µM

**Q.** What about the GI90 (KARPAS-422) of the same compound?
**A.** 8 µM

**Q.** What about the hepatic extraction ratio [2] of the same compound?
**A.** 0.18

**Q.** What about the IC50 (Cytochrome P450 2C9 [3]) of the same compound?
**A.** > 20 µM

**Q.** What about the Papp B→A at 2 h [4] of the same compound?
**A.** 37 ×10⁻⁶ cm/s

**Q.** And the Drug metabolism [5]?
**A.** Metabolite_Detected

**Q.** What about the bioavailability [6] of the same compound?
**A.** 69%

**Q.** And the hepatocyte CLint [7]?
**A.** 12 µL/min/1e6 cells

**Q.** And the hepatocyte CLint [8]?
**A.** 4.4 µL/min/1e6 cells

**Q.** What about the pKa [9] of the same compound?
**A.** 5.2

**Q.** What about the AUC/dose [10] of the same compound?
**A.** 2093 nM·h

**Q.** And the blood plasma ratio [11]?
**A.** 0.78

**Q.** And the Activity (NIH3T3)?
**A.** Non-Toxic

**Q.** What about the IC50 (Cytochrome P450 2C9 [12]) of the same compound?
**A.** > 18 µM

**Q.** And the Cmax/dose [13]?
**A.** 427 nM

**Q.** And the IC50 [14]?
**A.** 9.6 µM

**Q.** And the Cmax/dose [15]?
**A.** 400 nM

**Q.** What about the Activity [16] of the same compound?
**A.** Non-Toxic

**Q.** What about the fraction unbound at 6 h, 1 µM [17] of the same compound?
**A.** 0.08

**Q.** And the Activity [18]?
**A.** 100%

**Q.** What about the dose excreted at 8 h [19] of the same compound?
**A.** 0.5%

**Q.** What about the logD [20] of the same compound?
**A.** 3.88

**Q.** What about the Vdss [21] of the same compound?
**A.** 3.5 L/kg

**Q.** And the blood plasma ratio [22]?
**A.** 1.03

**Q.** And the “Cp(f)” value [23]?
**A.** 8 nM

**Q.** And the Activity [24]?
**A.** 97%

**Q.** And the Activity [25]?
**A.** 80%

**Q.** What about the fraction unbound at 6 h, 1 µM [26] of the same compound?
**A.** 0.09

**Q.** What about the Activity [27] of the same compound?
**A.** 100%

**Q.** And the hepatocyte CLint [28]?
**A.** 4.8 µL/min/1e6 cells

**Q.** And the microsomal CLint [29]?
**A.** 33 µL/min/mg

**Q.** And the Activity [30]?
**A.** Non-Toxic

**Q.** What about the Activity [31] of the same compound?
**A.** 100%

**Q.** And the Activity [32]?
**A.** Non-Toxic

**Q.** What about the IC50 (Cytochrome P450 2D6) of the same compound?
**A.** > 20 µM

**Q.** And the Drug metabolism [33]?
**A.** Metabolite_Notdetected

**Q.** And the blood plasma ratio [34]?
**A.** 0.72

**Q.** What about the solubility [35] of the same compound?
**A.** 266 µM (≈ 100 µg/mL)
